Reference: patent US6124327A, “HIV integrase inhibitors” (Merck & Co., Inc., priority 1998, dated 2000)

Key:
[1] = target: T1, HIV integrase (Human immunodeficiency virus type 1 group M subtype B, UniProt P04585); test: Strand Transfer Assay for HIV Integrase (microtiter assay, processed donor (HIV) DNA to nonspecific, nicked target DNA); format: biochemical; conditions: inhibitor at various concentrations in the range of 1 to 100 μM
T1 construct: HIV integrase
Procedure: Strand Transfer Assay for HIV Integrase
A microtiter assay for strand transfer of processed donor (HIV) DNA to nonspecific, nicked target DNA was conducted according to Wolfe, et al., J. Virol., 70, 1424 (1996), herein incorporated by reference for these purposes. To assay inhibition of such strand transfer by HIV integrase, the reaction was conducted with inhibitor having various concentrations in the range of 1 to 100 μM.

[2] = target: T2, HIV-1 integrase (Human immunodeficiency virus type 1 group M subtype B, UniProt P04585); test: HIV Integrase Substrate Cleavage (endonucleolytic processing and joining of the 3' end of HIV long terminal repeat terminus; coupled reaction); format: biochemical; conditions: inhibitor at various concentrations in the range of 1 to 100 μM
T2 construct: HIV-1 integrase
Procedure: HIV Integrase Substrate Cleavage
As assay for endonucleolytic processing and joining of the 3' end of HIV long terminal repeat terminus by HIV-1 integrase was conducted according to Hazuda, et al., Nud. Acids Res., 22, 1121 (1994), herein incorporated by reference for these purposes. To assay inhibition of the coupled reaction, the assay was conducted with inhibitor having various concentrations in the range of 1 to 100 μM.

| SMILES | IC50 [1] [µM] | IC50 [2] [µM] |
| --- | --- | --- |
| CCCC(O)CCCCCCCc1cc(O)cc(O)c1 (centres unmarked) [Compound D] | > 100 | 93 |
| CCCC(CCCCCCCc1cc(O)cc(O)c1C(=O)OC(CCC)CCCCCCCc1cc(O)cc(O)c1)OC(C)=O (centres unmarked) [Compound A] | 32 | 3.2 |
| CCC/C=C/CCCCCCc1cc(O)cc(O)c1C(=O)OC(CCC)CCCCCCCc1cc(O)cc(O)c1 (centres unmarked) [Compound C] | > 88 | 3.5 |
| CCCC(O)CCCCCCCc1cc(O)cc(O)c1C(=O)OC(CCC)CCCCCCCc1cc(O)cc(O)c1 (centres unmarked) [Compound B] | 17 | 6.1 |
